Data published in PubChem BioAssay (NCI).
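Interpolation was linear, between the two tested concentrations surrounding the appropriate level; five concentrations were tested over 48 hours in 96-well plates. Definition used: TGI = concentration required for complete inhibition of growth.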

Assays:
Test in all cases: DTP human tumour cell line panel, 48 h
[1] = system: KM12 colon
[2] = system: LOX IMVI melanoma
[3] = system: RPMI-8226 leukemia
[4] = system: NCI-H226 lung
[5] = system: HOP-62 NSCLC
[6] = system: BT-549 breast
[7] = system: SF-295 CNS
[8] = system: EKVX NSCLC
[9] = system: A549 NSCLC
[10] = system: RXF 393 renal
[11] = system: NCI-H23 lung
[12] = system: SNB-75 CNS
[13] = system: HCT-15 colon
[14] = system: SW-620 colon
[15] = system: T-47D breast
[16] = system: SF-539 CNS
[17] = system: K-562 leukemia
[18] = system: CAKI-1 renal
[19] = system: SF-268 CNS
[20] = system: SK-MEL-28 melanoma
[21] = system: HS 578T breast
[22] = system: U251 CNS
[23] = system: SNB-19 CNS
[24] = system: OVCAR-4 ovarian
[25] = system: IGROV1 ovarian
[26] = system: PC-3 prostate
[27] = system: HOP-92 NSCLC
[28] = system: ACHN renal
[29] = system: TK-10 renal
[30] = system: DU-145 prostate
[31] = system: SR leukemia
[32] = system: SK-MEL-5 melanoma
[33] = system: HT29 colon
[34] = system: NCI/ADR-RES ovarian
[35] = system: A498 renal
[36] = system: OVCAR-5 ovarian
[37] = system: 786-0 renal
[38] = system: OVCAR-3 ovarian
[39] = system: MDA-MB-231 breast
[40] = system: NCI-H460 lung
[41] = system: SK-OV-3 ovarian
[42] = system: MALME-3M melanoma
[43] = system: MCF7 breast
[44] = system: MDA-N
[45] = system: M14 melanoma
[46] = system: HCT-116 colon
[47] = system: NCI-H522 lung
[48] = system: SN12C renal
[49] = system: MOLT-4 leukemia
[50] = system: SK-MEL-2 melanoma
[51] = system: OVCAR-8 ovarian
[52] = system: UACC-257 melanoma
[53] = system: MDA-MB-435
[54] = system: COLO 205 colon
[55] = system: UO-31 renal
[56] = system: HCC-2998 colon
[57] = system: CCRF-CEM leukemia
[58] = system: UACC-62 melanoma
[59] = system: HL-60(TB) leukemia

## COc1ccc(/C=C(\NC(=O)c2ccccc2)C(=O)NN(C)c2ccnc3cc(Cl)ccc23)cc1OC
[1]
  TGI: 34.7 µM
[2]
  TGI: 35.1 µM
[3]
  TGI: 45.3 µM
[4]
  TGI: 40.8 µM
[5]
  TGI: > 100 µM
[6]
  TGI: 39.5 µM
[7]
  TGI: 97.1 µM
[8]
  TGI: > 100 µM
[9]
  TGI: 97.1 µM
[10]
  TGI: 38.4 µM
[11]
  TGI: 62.8 µM
[12]
  TGI: > 100 µM
[13]
  TGI: 55.4 µM
[14]
  TGI: 51.3 µM
[15]
  TGI: > 100 µM
[16]
  TGI: 46.5 µM
[17]
  TGI: 51.2 µM
[18]
  TGI: 90.6 µM
[19]
  TGI: 35.4 µM
[20]
  TGI: 58.1 µM
[21]
  TGI: > 100 µM
[22]
  TGI: 35.4 µM
[23]
  TGI: > 100 µM
[24]
  TGI: 90.5 µM
[25]
  TGI: 47.6 µM
[26]
  TGI: 70.2 µM
[27]
  TGI: 55.3 µM
[28]
  TGI: 79 µM
[29]
  TGI: > 100 µM
[30]
  TGI: 66.3 µM
[31]
  TGI: 41.3 µM
[32]
  TGI: 88.3 µM
[33]
  TGI: > 100 µM
[34]
  TGI: 43.8 µM
[35]
  TGI: > 100 µM
[36]
  TGI: > 100 µM
[37]
  TGI: 79.2 µM
[38]
  TGI: 69.7 µM
[39]
  TGI: 60.3 µM
[40]
  TGI: 39.3 µM
[41]
  TGI: > 100 µM
[42]
  TGI: 72.5 µM
[43]
  TGI: 46.3 µM
[44]
  TGI: 65.7 µM
[45]
  TGI: 47.9 µM
[46]
  TGI: > 100 µM
[47]
  TGI: 44.1 µM
[48]
  TGI: 66.9 µM
[49]
  TGI: 47.7 µM
[50]
  TGI: 46 µM
[51]
  TGI: 46.8 µM
[52]
  TGI: 79.1 µM
[53]
  TGI: 49.6 µM
[54]
  TGI: 61 µM
[55]
  TGI: 80.4 µM

## O=C(Nc1ccc2c(c1)oc(=O)c1ccccc12)C(Cl)Cl
[1]
  TGI: > 100 µM
[2]
  TGI: > 100 µM
[3]
  TGI: 32.5 µM
[4]
  TGI: > 100 µM
[5]
  TGI: > 100 µM
[6]
  TGI: > 100 µM
[7]
  TGI: > 100 µM
[8]
  TGI: > 100 µM
[9]
  TGI: > 100 µM
[10]
  TGI: > 100 µM
[11]
  TGI: > 100 µM
[56]
  TGI: > 100 µM
[12]
  TGI: > 100 µM
[13]
  TGI: > 100 µM
[14]
  TGI: > 100 µM
[15]
  TGI: > 100 µM
[16]
  TGI: > 100 µM
[17]
  TGI: > 100 µM
[18]
  TGI: > 100 µM
[19]
  TGI: > 100 µM
[20]
  TGI: > 100 µM
[21]
  TGI: > 100 µM
[22]
  TGI: > 100 µM
[23]
  TGI: > 100 µM
[25]
  TGI: > 100 µM
[26]
  TGI: > 100 µM
[27]
  TGI: > 100 µM
[28]
  TGI: > 100 µM
[30]
  TGI: > 100 µM
[31]
  TGI: > 100 µM
[32]
  TGI: > 100 µM
[33]
  TGI: 97.8 µM
[34]
  TGI: > 100 µM
[57]
  TGI: > 100 µM
[35]
  TGI: > 100 µM
[36]
  TGI: > 100 µM
[37]
  TGI: > 100 µM
[38]
  TGI: 73.8 µM
[39]
  TGI: > 100 µM
[40]
  TGI: 92.5 µM
[42]
  TGI: > 100 µM
[43]
  TGI: > 100 µM
[44]
  TGI: > 100 µM
[45]
  TGI: > 100 µM
[46]
  TGI: > 100 µM
[47]
  TGI: > 100 µM
[48]
  TGI: > 100 µM
[49]
  TGI: > 100 µM
[50]
  TGI: > 100 µM
[51]
  TGI: > 100 µM
[52]
  TGI: > 100 µM
[53]
  TGI: > 100 µM
[58]
  TGI: > 100 µM
[54]
  TGI: > 100 µM
[59]
  TGI: 25.5 µM
[55]
  TGI: > 100 µM
